Measurements reported in patent US4640910A (Abbott Laboratories, priority 1985, dated 1987).
In brackets after ≈: the same amount, converted by molar mass. Where two headings read alike, the source gives them in different places.

What was measured:
Strep. pyogenes = test: Extended mouse protection study; settings: oral
Staph. aureus = test: Extended mouse protection study; settings: oral
Strep. pneumoniae = test: Extended mouse protection study; settings: oral
Staph. aureus A 5177 = test: Antimicrobial spectrum, agar dilution MIC; format: cell-based; settings: Staphylococcus aureus, A5177; Staph. aureus A 5177; BHI agar, 35°-37° C., 20-24 hours; read-out: MIC
Micrococcus luteus 9341 = test: Antimicrobial spectrum, agar dilution MIC; format: cell-based; settings: Micrococcus luteus, 9341
indicated test organism = test: Acute mouse protection test; format: in vivo, female, Swiss albino mice; settings: 1 and 5 hours post-infection, 7 days, * = highest level tested
[1] = test system: Providencia stuartii CMX 640; test: Antimicrobial spectrum, agar dilution MIC; format: cell-based; settings: CMX640; Providencia stuartii CMX 640; BHI agar, 35°-37° C., 20-24 hours; read-out: MIC
[2] = test system: Lactobacillus casei ATCC 7469; test: Antimicrobial spectrum, agar dilution MIC; format: cell-based; settings: Lacticaseibacillus casei, ATCC7469
Ps. aeruginosa K799/WT = test: Antimicrobial spectrum, agar dilution MIC; format: cell-based; settings: Pseudomonas aeruginosa, BHI agar, 35°-37° C., 20-24 hours
[3] = test system: Enterobact. aerogenes ATCC 13048; test: Antimicrobial spectrum, agar dilution MIC; format: cell-based; settings: Enterobact. aerogenes ATCC 13048; BHI agar, 35°-37° C., 20-24 hours; read-out: MIC
Strep. pyogenes 930 = test: Antimicrobial spectrum, agar dilution MIC; format: cell-based; settings: Streptococcus pyogenes, BHI agar, 35°-37° C., 20-24 hours
Ps. cepacia 2961 = test: Antimicrobial spectrum, agar dilution MIC; format: cell-based; settings: Burkholderia cepacia; Ps. cepacia 2961; BHI agar, 35°-37° C., 20-24 hours; read-out: MIC
Ps. aeruginosa A5007 = test: Antimicrobial spectrum, agar dilution MIC; format: cell-based; settings: Pseudomonas aeruginosa, BHI agar, 35°-37° C., 20-24 hours
Ps. aeruginosa BMH10 = test: Antimicrobial spectrum, agar dilution MIC; format: cell-based; settings: Pseudomonas aeruginosa; Ps. aeruginosa BMH10; BHI agar, 35°-37° C., 20-24 hours; read-out: MIC
[4] = Stability and release of drug from prodrug in aqueous buffers pH 2 to 12 (dissolution apparatus, HPLC); format: physicochemical
Experimental: Samples of 2'-trimethylsilylerythromycin A and 2'-trimethylsilyl-6-O-methylerythromycin A were dissolved in 10-50 ml dimethyl sulfoxide or acetonitrile to give a solution containing 15-75 mg/ml. An aliquot containing 75 mg of prodrug was added to aqueous buffers ranging in pH from 2 to 12 to give a final volume equal to 500 ml. The buffered mixtures were stirred at 37° C. for at least 90 minutes. A standard dissolution test apparatus (Vanderkamp 600, Van-Kel Industries, Inc., 36 Meridian Road, Edisoin, N.J. 08820) was used to provide temperature and stirring rate control.
Aliquots were taken at 15, 30, 45, 60, 90, 120, 180, 240 and 360 minutes for analysis. Each sample was mixed with an internal standard, adjusted rapidly to pH 9 with 1M tricine buffer and extracted immediately with ethyl acetate. The organic extracts were evaporated and redissolved in a solution of 3% tetrahydrofuran in heptane. Samples of these solutions were injected using an autosampler (WISP 71)B, Waters Chromatography, Division of Millipore, 34 Maple Street, Milford, Mass. 01757). The prodrugs and drugs were separated by high performance liquid chromatography, detected at 225 nm using a spectrophotometer (Spectroflow 773 Absorbence Detector, Kratos Analytical Instruments), and were quantified with a digital integrator.

[5] = carboxymethylcellulose with milk (reduces gastric acid secretion)
[6] = phosphate buffer solution with milk (reduces gastric acid secretion)
[7] = Mus musculus, po, 168 h, oral administration, read-out: ED50
[8] = Mus musculus, sc, 168 h, subcutaneous administration, read-out: ED50
[9] = Mus musculus, sc, 168 h, subcutaneous administration
[10] = Mus musculus, po, 168 h, oral administration

Compound: CC[C@H]1OC(=O)[C@H](C)[C@@H](O[C@H]2C[C@@](C)(OC)[C@@H](O)[C@H](C)O2)[C@H](C)[C@@H](O[C@@H]2O[C@H](C)C[C@H](N(C)C)[C@H]2O)[C@](C)(OC)C[C@@H](C)C(=O)[C@H](C)[C@@H](O)[C@]1(C)O [6-O-methyl erythromycin A]
- ED50 (Strep. pyogenes; [5]): 5.3 mg/kg/day
- ED50 (Strep. pyogenes; phosphate buffer solution): 5.9 mg/kg/day
- ED50 (Strep. pyogenes; [6]): 11.1 mg/kg/day
- ED50 (Staph. aureus; carboxymethylcellulose): 25.0 mg/kg/day
- ED50 (Staph. aureus; phosphate buffer solution): 27.2 mg/kg/day
- ED50 (Strep. pneumoniae; carboxymethylcellulose): 2.4 mg/kg/day
- ED50 (Strep. pneumoniae; [5]): 2.2 mg/kg/day
- ED50 (Strep. pneumoniae; phosphate buffer solution): 1.6 mg/kg/day
- ED50 (Strep. pneumoniae; [6]): 1.6 mg/kg/day

Compound: CC[C@H]1OC(=O)[C@H](C)[C@@H](O[C@H]2C[C@@](C)(OC)[C@@H](O)[C@H](C)O2)[C@H](C)[C@@H](O[C@@H]2O[C@H](C)C[C@H](N(C)C)[C@H]2O)[C@](C)(O)C[C@@H](C)C(=O)[C@H](C)[C@@H](O)[C@]1(C)O [Erythromycin A, reference compound]
- MIC (Staph. aureus A 5177): 0.78 µg/mL (≈ 1.06 µM)
- MIC (Micrococcus luteus 9341): 0.02 µg/mL (≈ 0.0273 µM)
- ED50 (Strep. pyogenes; phosphate buffer solution): 37.2 mg/kg/day
- ED50 (indicated test organism; [7]): 75.7 mg/kg
- ED50 (indicated test organism; [8]): 10.9 mg/kg
- ED50 (indicated test organism; oral administration, 10080 min): 48.8 mg/kg/day
- MIC [1]: 100 µg/mL (≈ 136 µM)
- MIC [2]: 0.05 µg/mL (≈ 0.0681 µM)
- ED50 (Staph. aureus; carboxymethylcellulose): 86.0 mg/kg/day
- ED50 (Staph. aureus; phosphate buffer solution): 75.7 mg/kg/day
- MIC (Ps. aeruginosa K799/WT): 100 µg/mL (≈ 136 µM)
- MIC [3]: 100 µg/mL (≈ 136 µM)
- MIC (Strep. pyogenes 930): 100 µg/mL (≈ 136 µM)
- MIC (Ps. cepacia 2961): 100 µg/mL (≈ 136 µM)
- MIC (Ps. aeruginosa A5007): 100 µg/mL (≈ 136 µM)
- MIC (Ps. aeruginosa BMH10): 100 µg/mL (≈ 136 µM)

Compound: CC[C@H]1OC(=O)[C@H](C)[C@@H](O[C@H]2C[C@@](C)(OC)[C@@H](O)[C@H](C)O2)[C@H](C)[C@@H](O[C@@H]2O[C@H](C)C[C@H](N(C)C)[C@H]2O[Si](C)(C)C)[C@](C)(O)C[C@@H](C)C(=O)[C@H](C)[C@@H](O)[C@]1(C)O [Example 2, 2'-O-Trimethylsilyl Erythromycin A]
- degradation ([4]; pH 2 and 4, 37° C.): degraded to anhydroerythromycin A
- anhydroerythromycin formed ([4]; pH 6, 37° C.): significant amounts
- erythromycin A detected ([4]; pH 6, 37° C.): A very small amount
- erythromycin formed ([4]; pH 8, 10 or 12, 37° C.): No erythromycin was formed

Compound: CC[C@H]1OC(=O)[C@H](C)[C@@H](O[C@H]2C[C@@](C)(OC)[C@@H](O[Si](C)(C)C)[C@H](C)O2)[C@H](C)[C@@H](O[C@@H]2O[C@H](C)C[C@H](N(C)C)[C@H]2O)[C@](C)(O)C[C@@H](C)C(=O)[C@H](C)[C@@H](O)[C@]1(C)O [Example 8, 4"-O-trimethylsilyl erythromycin A]
- ED50 (indicated test organism; [7]): 99.7 mg/kg
- ED50 (indicated test organism; [8]): 16 mg/kg
- ED50 (indicated test organism; oral administration, listed as 4"-O--TMS Ery A, 10080 min): 61.5 mg/kg/day

Compound: CC[C@H]1OC(=O)[C@H](C)[C@@H](O[C@H]2C[C@@](C)(OC)[C@@H](O[Si](C)(C)C)[C@H](C)O2)[C@H](C)[C@@H](O[C@@H]2O[C@H](C)C[C@H](N(C)C)[C@H]2O)[C@](C)(OC)C[C@@H](C)C(=O)[C@H](C)[C@@H](O[Si](C)(C)C)[C@]1(C)O [Example 10, 4"-11-bis(O-TMS)-6-O-methyl erythromycin A]
- ED50 (indicated test organism; [7]): 51.8 mg/kg
- ED50 (indicated test organism; [9]): 40 mg/kg

Compound: CC[C@H]1OC(=O)[C@H](C)[C@@H](O[C@H]2C[C@@](C)(OC)[C@@H](O)[C@H](C)O2)[C@H](C)[C@@H](O[C@@H]2O[C@H](C)C[C@H](N(C)C)[C@H]2O[Si](C)(C)C)[C@](C)(O)C[C@@H](C)C(=NO[Si](C)(C)C)[C@H](C)[C@@H](O)[C@]1(C)O [Example 11, 2',9-bis(O-trimethylsilyl)-Erythromycin A-9-oxime]
- ED50 (indicated test organism; [10]): 150 mg/kg
- ED50 (indicated test organism; [9]): 40 mg/kg

Compound: CC[C@H]1OC(=O)[C@H](C)[C@@H](O[C@H]2C[C@@](C)(OC)[C@@H](O[Si](C)(C)C)[C@H](C)O2)[C@H](C)[C@@H](O[C@@H]2O[C@H](C)C[C@H](N(C)C)[C@H]2OC(C)=O)[C@](C)(O)C[C@@H](C)C(=O)[C@H](C)[C@@H](O[Si](C)(C)C)[C@]1(C)O [Example 12, 2'-Acetyl-4",11-bis (-O-TMS)-Erythromycin A]
- ED50 (indicated test organism; [10]): 250 mg/kg
- ED50 (indicated test organism; [9]): 40 mg/kg
